Results taken from ChEMBL document CHEMBL6096630, “Enhancing therapeutic efficacy in homologous recombination-proficient pancreatic cancer via the combination of PARP1-PROTAC and a BRD4 inhibitor” (Bioorg Med Chem, 2024).
Active and inactive are the calls of the source. No cut-off for these calls is given here.

Key:
PANC-1 [1] = test: Antiproliferative activity against human PANC-1 cells expressing wild-type BRCA assessed as inhibition of cell survival incubated for 5 days by CCK8 assay; format: functional, cell-based; details: PANC-1, 120 h
BXPC-3 = test: Antiproliferative activity against human BXPC-3 cells expressing wild-type BRCA assessed as inhibition of cell survival incubated for 5 days by CCK8 assay; format: functional, cell-based; details: BXPC-3, 120 h
CAPAN-1 = test: Antiproliferative activity against human CAPAN-1 cells expressing BRCA-/- assessed as inhibition of cell survival incubated for 5 days by CCK8 assay; format: functional, cell-based; details: CAPAN-1, 120 h
PANC-1 [2] = test: Induction of DNA damage in human PANC-1 cells assessed as increase in gamma-H2AX level at 2 uM in presence of JQ1 by Western blot analysis; format: functional, cell-based
PANC-1 [3] = test: Induction of cell cycle arrest in human PANC-1 cells assessed as accumulation at S phase at 0.6 uM incubated for 24 hrs by PI staining based flow cytometry (reference value: 38.94 %); format: functional
PANC-1 [4] = test: Induction of cell cycle arrest in human PANC-1 cells assessed as accumulation at G1 phase at 1.2 uM incubated for 24 hrs by PI staining based flow cytometry (reference value: 51.70 %); format: functional
PANC-1 [5] = test: Induction of cell cycle arrest in human PANC-1 cells assessed as accumulation at G2 phase at 1.2 uM incubated for 24 hrs by PI staining based flow cytometry (reference value: 9.36 %); format: functional
PANC-1 [6] = test: Induction of cell cycle arrest in human PANC-1 cells assessed as accumulation at S phase at 2.5 uM incubated for 24 hrs by PI staining based flow cytometry (reference value: 38.94 %); format: functional
PANC-1 [7] = test: Induction of cell cycle arrest in human PANC-1 cells assessed as accumulation at G2 phase at 2.5 uM incubated for 24 hrs by PI staining based flow cytometry (reference value: 9.36 %); format: functional
PANC-1 [8] = test: Induction of cell cycle arrest in human PANC-1 cells assessed as accumulation at G1 phase at 10 uM incubated for 24 hrs by PI staining based flow cytometry (reference value: 51.70 %); format: functional
PANC-1 [9] = test: Induction of cell cycle arrest in human PANC-1 cells assessed as accumulation at G2 phase at 10 uM incubated for 24 hrs by PI staining based flow cytometry (reference value: 9.36 %); format: functional
PANC-1 [10] = test: Induction of cell cycle arrest in human PANC-1 cells assessed as accumulation at G1 phase at 2 uM incubated for 24 hrs by PI staining based flow cytometry (reference value: 51.70 %); format: functional
PANC-1 [11] = test: Induction of cell cycle arrest in human PANC-1 cells assessed as accumulation at S phase at 2 uM incubated for 24 hrs by PI staining based flow cytometry (reference value: 38.94 %); format: functional
PANC-1 [12] = test: Induction of cell cycle arrest in human PANC-1 cells assessed as accumulation at G2 phase at 2 uM incubated for 24 hrs by PI staining based flow cytometry (reference value: 9.36 %); format: functional
PANC-1 [13] = test: Induction of apoptosis in human PANC-1 cells assessed as late apoptotic cells at 0.6 uM incubated for 48 hrs by Annexin V-FITC/PI staining based flow cytometry (reference value: 3.87 %); format: functional
PANC-1 [14] = test: Induction of apoptosis in human PANC-1 cells assessed as viable cells at 1.2 uM incubated for 48 hrs by Annexin V-FITC/PI staining based flow cytometry (reference value: 91.64 %); format: functional; details: read-out: Activity
PANC-1 [15] = test: Induction of apoptosis in human PANC-1 cells assessed as viable cells at 2.5 uM incubated for 48 hrs by Annexin V-FITC/PI staining based flow cytometry (reference value: 91.64 %); format: functional; details: read-out: Activity
PANC-1 [16] = test: Induction of apoptosis in human PANC-1 cells assessed as necrotic cells at 2.5 uM incubated for 48 hrs by Annexin V-FITC/PI staining based flow cytometry (reference value: 3.09 %); format: functional
PANC-1 [17] = test: Induction of apoptosis in human PANC-1 cells assessed as necrotic cells at 5 uM incubated for 48 hrs by Annexin V-FITC/PI staining based flow cytometry (reference value: 3.09 %); format: functional
PANC-1 [18] = test: Induction of apoptosis in human PANC-1 cells assessed as late apoptotic cells at 10 uM incubated for 48 hrs by Annexin V-FITC/PI staining based flow cytometry (reference value: 3.87 %); format: functional
PANC-1 [19] = test: Induction of apoptosis in human PANC-1 cells assessed as necrotic cells at 10 uM incubated for 48 hrs by Annexin V-FITC/PI staining based flow cytometry (reference value: 3.09 %); format: functional
PANC-1 [20] = test: Induction of apoptosis in human PANC-1 cells assessed as viable cells at 2 uM incubated for 48 hrs by Annexin V-FITC/PI staining based flow cytometry (reference value: 91.64 %); format: functional; details: read-out: Activity
PANC-1 [21] = test: Induction of apoptosis in human PANC-1 cells assessed as early apoptotic cells at 2 uM incubated for 48 hrs by Annexin V-FITC/PI staining based flow cytometry (reference value: 1.41 %); format: functional
PANC-1 [22] = test: Induction of apoptosis in human PANC-1 cells assessed as late apoptotic cells at 2 uM incubated for 48 hrs by Annexin V-FITC/PI staining based flow cytometry (reference value: 3.87 %); format: functional
PANC-1 [23] = test: Induction of apoptosis in human PANC-1 cells assessed as necrotic cells at 2 uM incubated for 48 hrs by Annexin V-FITC/PI staining based flow cytometry (reference value: 3.09 %); format: functional
PANC-1 [24] = test: Antitumor activity against human PANC-1 cells xenografted in BALB/c mouse assessed as reduction in tumor growth at 40 mg/kg, ip for 4 weeks administered for 5 days consecutively and 2 days without treatment on every week; format: functional, organism-based
PANC-1 [25] = test: Antitumor activity against human PANC-1 cells xenografted in BALB/c mouse assessed as reduction in tumor growth at 40 mg/kg, ip for 4 weeks administered for 5 days consecutively and 2 days without treatment on every week in presence of JQ1; format: functional, organism-based
PANC-1 [26] = test: Antitumor activity against human PANC-1 cells xenografted in BALB/c mouse assessed as inhibition of tumor volume at 40 mg/kg, ip for 4 weeks administered for 5 days consecutively and 2 days without treatment on every week in presence of JQ1; format: functional, organism-based
[27] = Toxicity in BALB/c mouse xenografted with human PANC-1 cells assessed as animal morbidity at 40 mg/kg, ip for 4 weeks administered for 5 days consecutively and 2 days without treatment on every week in presence of JQ1; format: organism-based; details: in vivo, 672 h
[28] = Toxicity in BALB/c mouse xenografted with human PANC-1 cells assessed as pathological changes in lung at 40 mg/kg, ip for 4 weeks administered for 5 days consecutively and 2 days without treatment on every week by H and E staining based analysis; format: organism-based; details: in vivo, 672 h
[29] = Toxicity in BALB/c mouse xenografted with human PANC-1 cells assessed as pathological changes in lung at 40 mg/kg, ip for 4 weeks administered for 5 days consecutively and 2 days without treatment on every week in presence of JQ1 by H and E staining based analysis; format: organism-based; details: in vivo, 672 h
[30] = Toxicity in BALB/c mouse xenografted with human PANC-1 cells assessed as pathological changes in spleen at 40 mg/kg, ip for 4 weeks administered for 5 days consecutively and 2 days without treatment on every week by H and E staining based analysis; format: organism-based; details: in vivo, 672 h

SMILES | IC50 (PANC-1 [1]) [µM] | IC50 (BXPC-3) [µM] | IC50 (CAPAN-1) [µM] | Activity (PANC-1 [2]) | Activity (PANC-1 [3]) [%] | Activity (PANC-1 [4]) [%] | Activity (PANC-1 [5]) [%] | Activity (PANC-1 [6]) [%] | Activity (PANC-1 [7]) [%] | Activity (PANC-1 [8]) [%] | Activity (PANC-1 [9]) [%] | Activity (PANC-1 [10]) [%] | Activity (PANC-1 [11]) [%] | Activity (PANC-1 [12]) [%] | Activity (PANC-1 [13]) [%] | viability at 1.2 µM (PANC-1 [14]) [%] | viability at 2 µM (PANC-1 [20]) [%] | Activity (PANC-1 [21]) [%] | Activity (PANC-1 [22]) [%] | Activity (PANC-1 [23]) [%] | further results
O=C1CCC(N2C(=O)c3cccc(NC(=O)CNCCCCCCCCCCC(=O)N4CCN(C(=O)c5cc(Cc6n[nH]c(=O)c7ccccc67)ccc5F)CC4)c3C2=O)C(=O)N1 (centres undefined) | < 10 | < 10 | < 10 | Active | 44.14 | 45.72 | 11.34 | 43.26 | 12.98 | 43.14 | 15.94 | 43.66 | 41.71 | 14.63 | 3.89 | 89.8 | 86.3 | 4.35 | 5.84 | 3.54 | viability at 2.5 µM (PANC-1 [15]): 88.9%; Activity (PANC-1 [16]): 2.55%; Activity (PANC-1 [17]): 4.28%; Activity (PANC-1 [18]): 5.33%; Activity (PANC-1 [19]): 3.83%; Activity (PANC-1 [24]): Active; Activity (PANC-1 [25]): Active; inhibition (PANC-1 [26]): Active; Activity [27]: Non-toxic; Activity [28]: Non-toxic; Activity [29]: Non-toxic; Activity [30]: Non-toxic
O=C(c1cc(Cc2n[nH]c(=O)c3ccccc23)ccc1F)N1CCN(C(=O)C2CC2)CC1 [OLAPARIB] | < 10 | < 10 | < 10 | Active | 42.54 | 46.59 | 12.41 | 41.49 | 14.19 | 35.31 | 19.74 | 45.99 | 39.4 | 14.61 | 4.21 | 89.1 | 89.7 | 3.48 | 4.61 | 2.23 | viability at 2.5 µM (PANC-1 [15]): 89.2%; Activity (PANC-1 [16]): 3.45%; Activity (PANC-1 [17]): 2.91%; Activity (PANC-1 [18]): 5.35%; Activity (PANC-1 [19]): 3.35%; Activity (PANC-1 [24]): Active; Activity (PANC-1 [25]): Active; inhibition (PANC-1 [26]): Active; Activity [27]: Non-toxic; Activity [28]: Non-toxic; Activity [29]: Non-toxic; Activity [30]: Non-toxic
Cc1sc2c(c1C)C(c1ccc(Cl)cc1)=N[C@@H](CC(=O)OC(C)(C)C)c1nnc(C)n1-2 | < 10 | < 10 | < 10 |  |  |  |  |  |  |  |  | 59.44 | 28.44 | 12.12 |  |  | 74.4 | 6.1 | 14.01 | 6.51 | 
